These results are taken from patent publication US6716828B1, “Compounds, methods and pharmaceutical compositions for treating cellular damage, such as neural or cardiovascular tissue damage” (Guilford Pharmaceuticals, Inc., priority 1999, dated 2004).

In data set [1] the target is T1, purified recombinant human PARP (Homo sapiens, UniProt P09874).
T1 construct: purchased Trevigan (Gaithersburg, Md.)
Put plainly: PARP enzyme assay (IC50), [3H]NAD incorporation. As to conditions: approximate IC50 values. The data set is classed as biochemical. The method, then: A convenient method to determine IC50 of a PARP inhibitor compound is PARP assay using purified recombinant human PARP from Trevigan (Gaithersburg, Md.), as follows: The PARP enzyme assay is set up on ice in a volume of 100 microliters consisting of 100 mM Tris-HCl (pH 8.0). 1 mM MgCl2, 28 mM KCl, 28 mM NaCl, 0.1 mg/ml of DNase I activated herring sperm DNA (Sigma, Mo.), 3.0 micromolar [3H]nicotinamide adenine dinucleotide (470 mci/mmole), 7 micrograms/ml PARP enzyme, and various concentrations of the compounds to be tested. The reaction is initiated by incubating the mixture at 25° C. After 15 minutes of incubation, the reaction is terminated by adding 500 microliters of ice code 20% (w/v) trichloracetic acid. The precipitate formed is transferred onto a glass fiber filter (Packard Unifilter-GF/B) and washed three items with ethanol. After the filter is dried, the radioactivity is determined by scintillation counting.
Using the PARP assay described above, approximate IC50 values were obtained for the following compounds: […]

A further data set has as its system rabbits. Particulars: cited from earlier work.
Data set [2] has as its system human fibroblast cells lines (either W138 or BJ cells). Put plainly: Extending or increasing proliferative capacity and lifespan of cells. The data set is classed as cell-based. As for the experimental part: At the time of subdivision, the media is aspirated, and the cells rinsed with phosphate buffer saline (PBS) and then trypsinzied. The cells are counted with a Coulter counter and plated at a density of 10^5 cells per cm^2 in 6-well tissue culture plates in DMEM/199 medium supplemented with 10% bovine calf serum and varying amounts (0.10 μM, and 1 mM; from a 100× stock solution in DMEM/M199 medium) of a PARP inhibitor. This process is repeated every 7 days until the cells appear to stop dividing. The untreated (control) cells reach senescence and stop dividing after about 40 days a culture. […] The cells treated with 1 mM 3-AB will still divide after 60 days in culture.

T1 sequence (P09874 whole entry): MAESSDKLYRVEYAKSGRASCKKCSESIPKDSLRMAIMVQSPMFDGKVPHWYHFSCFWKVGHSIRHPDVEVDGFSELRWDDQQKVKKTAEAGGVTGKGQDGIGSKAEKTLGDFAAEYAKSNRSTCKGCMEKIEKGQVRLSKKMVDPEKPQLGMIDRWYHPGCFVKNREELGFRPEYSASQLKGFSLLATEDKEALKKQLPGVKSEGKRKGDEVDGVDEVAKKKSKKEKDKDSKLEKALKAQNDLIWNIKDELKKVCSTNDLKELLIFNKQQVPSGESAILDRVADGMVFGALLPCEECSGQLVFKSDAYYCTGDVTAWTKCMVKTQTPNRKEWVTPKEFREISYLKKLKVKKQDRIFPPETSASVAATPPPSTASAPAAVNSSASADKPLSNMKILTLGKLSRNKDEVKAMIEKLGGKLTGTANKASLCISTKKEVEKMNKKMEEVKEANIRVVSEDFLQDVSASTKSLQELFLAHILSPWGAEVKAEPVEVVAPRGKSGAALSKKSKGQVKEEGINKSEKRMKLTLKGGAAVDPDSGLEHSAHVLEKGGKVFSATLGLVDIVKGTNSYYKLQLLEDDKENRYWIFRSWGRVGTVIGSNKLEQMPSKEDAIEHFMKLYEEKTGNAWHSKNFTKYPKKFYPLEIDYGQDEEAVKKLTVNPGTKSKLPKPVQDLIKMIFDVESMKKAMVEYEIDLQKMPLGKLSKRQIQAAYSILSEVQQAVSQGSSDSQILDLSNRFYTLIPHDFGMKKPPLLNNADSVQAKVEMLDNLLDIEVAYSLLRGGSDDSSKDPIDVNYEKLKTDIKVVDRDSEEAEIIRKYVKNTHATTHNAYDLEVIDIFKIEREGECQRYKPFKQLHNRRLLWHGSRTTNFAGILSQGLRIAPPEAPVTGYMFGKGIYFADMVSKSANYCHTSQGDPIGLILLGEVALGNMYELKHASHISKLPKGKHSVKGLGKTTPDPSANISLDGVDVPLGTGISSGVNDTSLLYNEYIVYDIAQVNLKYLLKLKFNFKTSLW

One may read the melting point as the temperature of the solid-liquid transition. In turn, `COP(=O)(O)Cc1ccc2c(c1)-c1n[nH]c(=O)c3cccc(c13)O2` had a melting point of 196 to 201 °C.

A word on the IC50: it is the midpoint of a concentration-inhibition curve. For `CC(=O)Nc1ccc2c(c1)-c1n[nH]c(=O)c3cccc-2c13`, in data set [1], the IC50 was found to be 69 nM.

Turning to `CC(=O)Nc1ccc2c(c1)-c1n[nH]c(=O)c3cccc(c13)O2`, the IC50 in data set [1] is 36 nM.

As to `O=c1[nH]nc2c3c(cccc13)Oc1ccc(S(=O)(=O)O)cc1-2`, the IC50 in data set [1] was determined as 52 nM.

Turning to `O=c1[nH]nc2c3c(cccc13)Oc1ccc(S(=O)(=O)NCCN3CCCCC3)cc1-2`, the IC50 in data set [1] is 192 nM.

Turning to `O=c1[nH]nc2c3c(cccc13)Oc1ccc(S(=O)(=O)NCCN3CCOCC3)cc1-2`, the IC50 in data set [1] was 81 nM.

With `CN1CCN(S(=O)(=O)c2ccc3c(c2)-c2n[nH]c(=O)c4cccc(c24)O3)CC1`, the IC50 in data set [1] was 208 nM.

With `CCOP(=O)(Nc1ccc2c(c1)-c1n[nH]c(=O)c3cccc(c13)O2)OCC`, the IC50 in data set [1] is 199 nM.

For the compound `CS(=O)(=O)Nc1ccc2c(c1)-c1n[nH]c(=O)c3cccc(c13)O2`, the IC50 in data set [1] was found to be 198 nM.

For `O=C(O)c1cccc(S(=O)(=O)Nc2ccc3c(c2)-c2n[nH]c(=O)c4cccc-3c24)c1`, the IC50 in data set [1] was determined as 52 nM.

In the case of `O=C(O)CCC(=O)Nc1ccc2c(c1)-c1n[nH]c(=O)c3cccc-2c13`, in data set [1], the IC50 was 29 nM.

Turning to `CCN(CC)CCNS(=O)(=O)c1ccc2c(c1)-c1n[nH]c(=O)c3cccc-2c13`, the IC50 in data set [1] was 390 nM.

For the compound `O=c1[nH]nc2c3c(cccc13)-c1ccc(S(=O)(=O)NCCN3CCOCC3)cc1-2`, the half-maximal inhibitory concentration (IC50) in data set [1] stood at 340 nM.

For `O=c1[nH]nc2c3c(cccc13)Oc1ccc(NS(=O)(=O)O)cc1-2`, in data set [1], the IC50 was determined as 25 nM.

Take `O=C1NN=C2C3C=CC=CC3[S+]([O-])C3=CC=CC1C32` (stereo not drawn): the IC50 in data set [1] came to 340 nM.

Turning to `O=C(O)CCC(=O)Nc1ccc2c(c1)-c1n[nH]c(=O)c3cccc(c13)O2`, the IC50 in data set [1] was determined as 21 nM.

For `NCNCc1ccc2c(c1)-c1n[nH]c(=O)c3cccc(c13)O2`, the IC50 in data set [1] was 45 nM.

As for `NNC(=O)c1ccc(OCc2ccc3c(c2)-c2n[nH]c(=O)c4cccc(c24)O3)cc1`, the IC50 in data set [1] worked out at 35 nM.

On to `NNC(=O)c1cc(OCc2ccc3c(c2)-c2n[nH]c(=O)c4cccc(c24)O3)cc(C(=O)NN)c1`, for which, in data set [1], the 50% inhibitory concentration (IC50) came out at 40 nM.

As for `N#CCc1ccc2c(c1)-c1n[nH]c(=O)c3cccc(c13)O2`, the IC50 in data set [1] amounted to 25 nM.

For the compound `CN(C)Cc1ccc2c(c1)-c1n[nH]c(=O)c3cccc(c13)O2`, the IC50 in data set [1] was 17 nM.

As for `CCCCN(C)Cc1ccc2c(c1)-c1n[nH]c(=O)c3cccc(c13)O2`, the IC50 in data set [1] turned out to be 120 nM.

Take `O=c1[nH]nc2c3c(cccc13)Oc1ccc(CN3CCCCC3)cc1-2`: the IC50 in data set [1] was 72 nM.

With `NCCSCc1ccc2c(c1)-c1n[nH]c(=O)c3cccc(c13)O2`, the IC50 in data set [1] is 28 nM.

Regarding `Cc1cc2c(c(S(=O)(=O)O)c1)Oc1cccc3c(=O)[nH]nc-2c13`, the IC50 in data set [1] stood at 2030 nM.

Regarding `CN(C)c1cccc(OCc2ccc3c(c2)-c2n[nH]c(=O)c4cccc(c24)O3)c1`, the IC50 in data set [1] amounted to 128 nM.

With `O=C1NCC2c3cc(S(=O)(=O)O)ccc3Oc3cccc1c32` (stereo not drawn), the IC50 in data set [1] worked out at 161 nM.

With `O=c1[nH]nc2c3c(cccc13)Oc1ccc(COc3cccnc3)cc1-2`, in data set [1], the IC50 was 54 nM.

Regarding `O=c1[nH]nc2c3c(cccc13)Oc1ccc(CN3CCN(Cc4ccccc4)CC3)cc1-2`, the IC50 in data set [1] turned out to be 44 nM.

Regarding `O=c1[nH]nc2c3c(cccc13)Oc1ccc(CN3CCN(c4ccccc4)CC3)cc1-2`, the IC50 in data set [1] stood at 62 nM.

As for `O=C1NCC2c3cc(S(=O)(=O)NCCN4CCCCC4)ccc3Oc3cccc1c32` (stereo not drawn), the IC50 in data set [1] was determined as 361 nM.

With `O=c1[nH]nc2c3c(cccc13)Oc1ccc(CSc3ccncc3)cc1-2`, the IC50 in data set [1] was 17 nM.

In the case of `O=c1[nH]nc2c3c(cccc13)Oc1c-2ccc2ccccc12`, the IC50 in data set [1] worked out at 40000 nM.

For `O=c1[nH]nc2c3c(cccc13)Oc1ccc(S(=O)(=O)NCCc3ccncc3)cc1-2`, in data set [1], the IC50 was 89 nM.

As to `Cc1cc2c(c(-n3nc4ccccc4n3)c1)Oc1cccc3c(=O)[nH]nc-2c13`, in data set [1], the IC50 was 25000 nM.

On to `O=c1[nH]nc2c3c(cccc13)Oc1cc3ccccc3cc1-2`, for which, in data set [1], the IC50 is 139 nM.

Regarding `O=c1[nH]nc2c3c(cccc13)Oc1ccc(-c3nc4ccccc4nc3-c3ccccc3)cc1-2`, the IC50 in data set [1] was 100 nM.

As for `O=c1[nH]nc2c3c(cccc13)Oc1ccc(CN3CCN(c4ccccn4)CC3)cc1-2`, the IC50 in data set [1] turned out to be 77 nM.

For `CN1CCN(S(=O)(=O)c2ccc3c(c2)C2CNC(=O)c4cccc(c42)O3)CC1` (stereo not drawn), the IC50 in data set [1] worked out at 233 nM.

As to `O=C1NCC2c3cc(S(=O)(=O)NN4CCOCC4)ccc3Oc3cccc1c32` (stereo not drawn), the IC50 in data set [1] was found to be 144 nM.

Consider `O=C(O)[C@@H]1CCCN1S(=O)(=O)c1ccc2c(c1)-c1n[nH]c(=O)c3cccc(c13)O2`, for which the IC50 in data set [1] was found to be 58 nM.

Consider `COC(=O)C1CCCCN1S(=O)(=O)c1ccc2c(c1)C1CNC(=O)c3cccc(c31)O2` (stereo not drawn), for which the IC50 in data set [1] was 595 nM.

For the compound `O=c1[nH]nc2c3c(cccc13)Oc1ccc(S(=O)(=O)NCCN(CCO)CCO)cc1-2`, the IC50 in data set [1] stood at 158 nM.

As to `CC(=O)OC(C(=O)O)C(OC(C)=O)C(=O)Nc1ccc2c(c1)-c1n[nH]c(=O)c3cccc-2c13` (stereo not drawn), the half-maximal inhibitory concentration (IC50) in data set [1] came to 59 nM.

On to `O=c1[nH]nc2c3c(cccc13)Oc1ccc(S(=O)(=O)NCCCN3CCOCC3)cc1-2`, for which the IC50 in data set [1] turned out to be 185 nM.

As for `O=c1[nH]nc2c3c(cccc13)Oc1ccc(S(=O)(=O)NC3CN4CCC3CC4)cc1-2` (stereo not drawn), in data set [1], the IC50 is 37 nM.

On to `CN(C)CCN(C)Cc1ccc2c(c1)-c1n[nH]c(=O)c3cccc(c13)O2`, for which, in data set [1], the IC50 turned out to be 85 nM.

For `CC(=O)OC(C(=O)O)C(OC(C)=O)C(=O)Nc1ccc2c(c1)-c1n[nH]c(=O)c3cccc(c13)O2` (stereo not drawn), the IC50 in data set [1] stood at 18 nM.

Consider `O=C(O)C(O)C(O)C(=O)Nc1ccc2c(c1)-c1n[nH]c(=O)c3cccc-2c13` (stereo not drawn), for which the IC50 in data set [1] was determined as 65 nM.

For the compound `O=C(O)C(O)C(O)C(=O)Nc1ccc2c(c1)-c1n[nH]c(=O)c3cccc(c13)O2` (stereo not drawn), the IC50 in data set [1] stood at 23 nM.

For `O=c1[nH]nc2c3c(cccc13)Oc1ccc(CN3CCOCC3)cc1-2`, the half-inhibitory concentration (IC50) in data set [1] was 75 nM.

`Oc1cccc2c(O)nccc12` [1,5-dihydroxyisoquinoline]: the “reduction in infarct size” value in the data set with rabbits (1 mg/kg) is given as 38-48%.

Turning to `NC(=O)c1cccc(N)c1` [3-amino-benzamide], the “effect on lifespan and proliferative capacity of the cells” value in data set [2] (10 μM) was “little or no effect”; in data set [2] (100 μM) it was “lengthen the lifespan of the cells”; in data set [2] (1 mM) it was “dramatically increases the lifespan and proliferative capacity of the cells”. For the same compound, the “time in culture at which cells still divide” value in data set [2] (1 mM, untreated cells stop dividing after about 40 days) was above 60 days. Also, in the data set on rabbits (single injection 10 mg/kg, one minute before occlusion or one minute before reperfusion), the “reduction in infarct size in the heart” value is reported as 32-42%.
